Measured values as given in patent publication US20220204498A1, “PYRIDO-PYRIMIDINYL COMPOUNDS AND METHODS OF USE” (Genentech, Inc., priority 2019, published 2022).
pIC50: −log10 of the molar value. Counter-ions that a name gives are not always drawn.

Target: T1, IRE1α (Homo sapiens, UniProt O75460, D688N)
T1 construct: containing the kinase and RNase domains (KR, AA G547-1L977, D688N); made in house; host or cells: Sf9 insect cells
Assay: IRE1α TR-FRET competition binding assay (IRE1α HTRF)
Details: His-tagged IRE1α kinase dead construct (KR, D688N) 0.25 nM; Alexa fluor 647-labeled ATP competitive probe 2 nM; one hour at room temperature; read-out: IRE1α (alpha) HTRF (IC50)
Experimental: Example 59. IRE1α TR-FRET Competition Binding Assay
To determine the affinity of compound binding to the kinase domain of IRE1α, a time-resolved fluorescence resonance energy transfer (TR-FRET) competition assay was used.
A His-tagged IRE1α kinase dead construct containing the kinase and RNase domains (KR, AA G547-1L977, D688N) was expressed in Sf9 insect cells. The purified protein (final concentration 0.25 nM) was pre-incubated with anti-His Europium labeled antibody (Life Technologies PV5596, final concentration 2 nM) for one hour at 4° C. in TR-FRET Assay Buffer (50 mM HEPES, pH 7.5, 10 mM MgCl2, 0.083 mM Brij 35, 1 mM DTT, and 0.1% bovine gamma globulin) prior to addition to test compounds. An Alexa fluor 647-labeled probe based on an ATP competitive inhibitor was added to a final concentration of 2 nM. Reactions were carried out for one hour at room temperature in a final volume of 20 μL in 384 well white ProxiPlates (Perkin Elmer 6008289). Binding of the probe to the IRE1α protein was detected in an Envision instrument (PerkinElmer) equipped with a TRF laser option and a LANCE/Delfia Dual/Bias D400/D630 mirror (Ex 347 nm, 1st Em 665 nm, 2nd Em 615 nm).

T1 sequence (O75460 547-977 D688N): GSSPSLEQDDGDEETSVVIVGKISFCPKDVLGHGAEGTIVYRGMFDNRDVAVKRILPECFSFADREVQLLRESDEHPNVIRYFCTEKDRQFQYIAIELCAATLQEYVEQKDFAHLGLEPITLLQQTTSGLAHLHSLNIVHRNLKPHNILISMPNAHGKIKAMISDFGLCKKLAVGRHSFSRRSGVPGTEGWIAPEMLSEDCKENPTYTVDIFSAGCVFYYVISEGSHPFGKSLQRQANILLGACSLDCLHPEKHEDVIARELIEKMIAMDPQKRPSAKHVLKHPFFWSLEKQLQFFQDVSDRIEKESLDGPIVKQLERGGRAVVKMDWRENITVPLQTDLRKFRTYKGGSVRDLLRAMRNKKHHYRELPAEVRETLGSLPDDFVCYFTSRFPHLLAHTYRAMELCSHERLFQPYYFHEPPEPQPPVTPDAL

pIC50	SMILES
7.74	Cc1nc(NS(=O)(=O)CCC(F)(F)F)ccc1-c1cc(C)c2nc(N[C@H]3CC[C@H](N(C)C)CC3)ncc2n1 [Compound 126, N-(5-(2-(((1,4-trans)-4-(Dimethylamino)cyclohexyl)amino)-8-methylpyrido[3,2-d]pyrimidin-6-yl)-6-methylpyridin-2-yl)-3,3,3-trifluoropropane-1-sulfonamide]
6.85	Cc1cc(-c2ccc(NC(=O)CC(C)C)c(F)c2)nc2cnc(N[C@H]3CC[C@H](N(C)C)CC3)nc12 [Compound 127, N-(4-(2-(((1,4-trans)-4-(Dimethylamino)cyclohexyl)amino)-8-methylpyrido[3,2-d]pyrimidin-6-yl)-2-fluorophenyl)-3-methylbutanamide]
9.80	Cc1cc(-c2ccc(NS(=O)(=O)c3ccccc3Cl)c(F)c2)nc2cnc(N[C@H]3CC[C@H](N(C)C)CC3)nc12 [Compound 128, 2-Chloro-N-(4-(2-(((1,4-trans)-4-(dimethylamino)cyclohexyl)amino)-8-methylpyrido[3,2-d]pyrimidin-6-yl)-2-fluorophenyl)benzenesulfonamide]
10.10	Cc1cc(-c2ccc(NS(=O)(=O)Cc3ccc(F)cc3)c(F)c2)nc2cnc(N[C@H]3CC[C@H](N(C)C)CC3)nc12 [Compound 129, N-(4-(2-(((1,4-trans)-4-(Dimethylamino)cyclohexyl)amino)-8-methylpyrido[3,2-d]pyrimidin-6-yl)-2-fluorophenyl)-1-(4-fluorophenyl)methanesulfonamide]
9.70	CN(C)[C@H]1CC[C@H](Nc2ncc3nc(-c4ccc(NS(=O)(=O)Cc5ccc(F)cc5)c(F)c4)cc(CF)c3n2)CC1 [Compound 130, N-[4-[2-[[(1,4-trans)-4-(Dimethylamino)cyclohexyl]amino]-8-(fluoromethyl)pyrido[3,2-d]pyrimidin-6-yl]-2-fluoro-phenyl]-1-(4-fluorophenyl)methanesulfonamide]
9.82	CN(C)[C@H]1CC[C@H](Nc2ncc3nc(-c4ccc(NS(=O)(=O)Cc5ccc(F)cc5)c(F)c4)cc(C(F)F)c3n2)CC1 [Compound 131, N-1,4-trans-[4-[8-(Difluoromethyl)-2-[[4-(dimethylamino)cyclohexyl]amino]pyrido[3,2-d]pyrimidin-6-yl]-2-fluoro-phenyl]-1-(4-fluorophenyl)methanesulfonamide]
9.64	Cc1cc(-c2ccc(NS(=O)(=O)Cc3ccc(F)cc3)c(F)c2F)nc2cnc(N[C@H]3CC[C@H](N(C)C)CC3)nc12 [Compound 132, N-(4-(2-(((1,4-trans)-4-(Dimethylamino)cyclohexyl)amino)-8-methylpyrido[3,2-d]pyrimidin-6-yl)-2,3-difluorophenyl)-1-(4-fluorophenyl)methanesulfonamide]
8.28	Cc1nc(NS(=O)(=O)Cc2ccc(F)cc2)ccc1-c1cc(C(F)F)c2nc(N[C@H]3CC[C@H](N(C)C)CC3)ncc2n1 [Compound 133, N-(5-(8-(Difluoromethyl)-2-(((1,4-trans)-4-(dimethylamino)cyclohexyl)amino)pyrido[3,2-d]pyrimidin-6-yl)-6-methylpyridin-2-yl)-1-(4-fluorophenyl)methanesulfonamide]
9.48	CCc1cc(-c2ccc(NS(=O)(=O)c3ccccc3Cl)nc2C)nc2cnc(N[C@H]3CC[C@H](N(C)C)CC3)nc12 [Compound 134, 2-Chloro-N-(5-(2-(((1,4-trans)-4-(dimethylamino)cyclohexyl)amino)-8-ethylpyrido[3,2-d]pyrimidin-6-yl)-6-methylpyridin-2-yl)benzenesulfonamide]
9.49	Cc1cc(-c2ccc(NS(=O)(=O)c3ccccc3Cl)nc2)nc2cnc(N[C@H]3CC[C@H](N(C)C)CC3)nc12 [Compound 135, 2-Chloro-N-(5-(2-(((1,4-trans)-4-(dimethylamino)cyclohexyl)amino)-8-methylpyrido[3,2-d]pyrimidin-6-yl)pyridin-2-yl)benzenesulfonamide]
7.85	Cc1nc(NS(=O)(=O)c2ccccc2Cl)ccc1-c1cc(C)c2nc(N[C@@H]3CNC[C@@H](F)C3)ncc2n1 [Compound 136, 2-Chloro-N-(5-(2-(((3S,5S)-5-fluoropiperidin-3-yl)amino)-8-methylpyrido[3,2-d]pyrimidin-6-yl)-6-methylpyridin-2-yl)benzenesulfonamide]
9.64	Cc1cc(-c2cc(F)c(NS(=O)(=O)Cc3ccc(F)cc3)cc2F)nc2cnc(N[C@H]3CC[C@H](N(C)C)CC3)nc12 [Compound 137, N-(4-(2-(((1,4-trans)-4-(Dimethylamino)cyclohexyl)amino)-8-methylpyrido[3,2-d]pyrimidin-6-yl)-2,5-difluorophenyl)-1-(4-fluorophenyl)methanesulfonamide]
9.68	COCc1cc(-c2ccc(NS(=O)(=O)Cc3ccc(F)cc3)c(F)c2)nc2cnc(N[C@H]3CC[C@H](N(C)C)CC3)nc12 [Compound 138, N-(4-(2-(((1,4-trans)-4-(Dimethylamino)cyclohexyl)amino)-8-(methoxymethyl)pyrido[3,2-d]pyrimidin-6-yl)-2-fluorophenyl)-1-(4-fluorophenyl)methanesulfonamide]
9.64	O=S(=O)(Cc1ccc(F)cc1)Nc1ccc(-c2cc(C(F)F)c3nc(N[C@@H]4CNC[C@@H](F)C4)ncc3n2)cc1F [Compound 139, N-[4-[8-(Difluoromethyl)-2-[[(3S,5S)-5-fluoro-3-piperidyl]amino]pyrido[3,2-d]pyrimidin-6-yl]-2-fluoro-phenyl]-1-(4-fluorophenyl)methanesulfonamide hydrochloride]
8.35	Cc1cc(-c2c(F)cc(NS(=O)(=O)Cc3ccc(F)cc3)cc2F)nc2cnc(N[C@H]3CC[C@H](N(C)C)CC3)nc12 [Compound 140, N-(4-(2-(((1,4-trans)-4-(Dimethylamino)cyclohexyl)amino)-8-methylpyrido[3,2-d]pyrimidin-6-yl)-3,5-difluorophenyl)-1-(4-fluorophenyl)methanesulfonamide]
9.37	CCc1cc(-c2ccc(NS(=O)(=O)c3ccccc3Cl)nc2OC)nc2cnc(N[C@H]3CC[C@H](N(C)C)CC3)nc12 [Compound 141, 2-Chloro-N-(5-(2-(((1,4-trans)-4-(dimethylamino)cyclohexyl)amino)-8-ethylpyrido[3,2-d]pyrimidin-6-yl)-6-methoxypyridin-2-yl)benzenesulfonamide]
9.85	CCc1cc(-c2ccc(NS(=O)(=O)Cc3ccc(F)cc3)nc2OC)nc2cnc(N[C@H]3CC[C@H](N(C)C)CC3)nc12 [Compound 142, N-(5-(2-(((1,4-trans)-4-(Dimethylamino)cyclohexyl)amino)-8-ethylpyrido[3,2-d]pyrimidin-6-yl)-6-methoxypyridin-2-yl)-1-(4-fluorophenyl)methanesulfonamide]
9.70	CN(C)[C@H]1CC[C@H](Nc2ncc3nc(-c4ccc(NS(=O)(=O)c5ccccc5Cl)c(F)c4)cc(C(F)F)c3n2)CC1 [Compound 143, 2-Chloro-N-[(1,4-trans)-4-[8-(difluoromethyl)-2-[[4-(dimethylamino)cyclohexyl]amino]pyrido[3,2-d]pyrimidin-6-yl]-2-fluoro-phenyl]benzenesulfonamide]
9.80	CN(C)[C@H]1CC[C@H](Nc2ncc3nc(-c4ccc(NS(=O)(=O)CCC(F)(F)F)c(F)c4)cc(C(F)F)c3n2)CC1 [Compound 144, N-[(1,4-trans)-4-[8-(Difluoromethyl)-2-[[4-(dimethylamino)cyclohexyl]amino]pyrido[3,2-d]pyrimidin-6-yl]-2-fluoro-phenyl]-3,3,3-trifluoro-propane-1-sulfonamide]
9.60	Cc1nc(NS(=O)(=O)c2ccccc2Cl)ccc1-c1cc(C(F)F)c2nc(N[C@H]3CC[C@H](N(C)C)CC3)ncc2n1 [Compound 145, 2-Chloro-N-[5-[8-(difluoromethyl)-2-[[(1,4-trans)-4-(dimethylamino)cyclohexyl]amino]pyrido[3,2-d]pyrimidin-6-yl]-6-methyl-2-pyridyl]benzenesulfonamide]
9.68	CCc1cc(-c2ccc(NS(=O)(=O)c3ccccc3F)nc2C)nc2cnc(N[C@H]3CC[C@H](N(C)C)CC3)nc12 [Compound 146, N-(5-(2-(((1,4-trans)-4-(dimethylamino)cyclohexyl)amino)-8-ethylpyrido[3,2-d]pyrimidin-6-yl)-6-methylpyridin-2-yl)-2-fluorobenzenesulfonamide]
9.55	CCc1cc(-c2ccc(NS(=O)(=O)c3ccccc3C(F)F)nc2C)nc2cnc(N[C@H]3CC[C@H](N(C)C)CC3)nc12 [Compound 147, 2-(Difluoromethyl)-N-(5-(2-(((1,4-trans)-4-(dimethylamino)cyclohexyl)amino)-8-ethylpyrido[3,2-d]pyrimidin-6-yl)-6-methylpyridin-2-yl)benzenesulfonamide]
9.29	CCc1cc(-c2ccc(NS(=O)(=O)c3ccccc3OC(F)F)nc2C)nc2cnc(N[C@H]3CC[C@H](N(C)C)CC3)nc12 [Compound 148, 2-(Difluoromethoxy)-N-(5-(2-(((1,4-trans)-4-(dimethylamino)cyclohexyl)amino)-8-ethylpyrido[3,2-d]pyrimidin-6-yl)-6-methylpyridin-2-yl)benzenesulfonamide]
